Experimental findings from ChEMBL document CHEMBL3045995, “Novel antifeeding limonoids from Dysoxylum hainanense” (2002) are described below.

The structures appear in SMILES notation.

The subject of the assay is Pieris rapae. Nature of the assay: Antifeeding activity against fifth-instar larvae Pieris rapae in compound treated Brassica oleracea L leaf disk at 500 ppm measured after 24 hr relative to control. The assay is classed as functional.

In turn, `C/C=C(\C)C(=O)O[C@H]1C[C@@H](OC(C)=O)[C@@]2(C(=O)OC)CO[C@H]3[C@@H](O)[C@@](C)([C@]45O[C@@]4(C)[C@@H]4C[C@H]5O[C@@H]5OC=C[C@@]54O)[C@H]4[C@]1(CO[C@]4(O)C(=O)OC)[C@@H]32` [AZADIRACHTIN A] gave an FDI of 100%.

Regarding `C=C1[C@@H]([C@]2(C)[C@H]3CC(=O)O[C@@]3(C)CO[C@@H]2CC(=O)O)[C@@H](O)[C@H](OC(=O)C(O)C(C)C)[C@@]2(C)[C@H](c3ccoc3)[C@@H](O)[C@H]3O[C@]132` (stereo partly specified) [DYSOXYLUMIC ACID A], the FDI is 78.7%.

Compound `C=C1[C@@H]([C@]2(C)[C@H]3CC(=O)O[C@@]3(C)CO[C@@H]2CC(=O)O)[C@@H](O)[C@H](OC(=O)C(O)C(C)C)[C@@]2(C)[C@H](C3=CC(O)OC3=O)[C@@H](O)[C@H]3O[C@]132` (stereo partly specified) [DYSOXYLUMIC ACID B] showed an FDI of 64.1%.

Compound `C=C1[C@@H]2[C@@H](O[C@@H](CC(=O)O)[C@@]2(C)[C@H]2CC(=O)O[C@]2(C)CO)[C@H](OC(=O)C(O)C(C)C)[C@@]2(C)[C@H](c3ccoc3)[C@@H](O)[C@H]3O[C@]132` (stereo partly specified) [DYSOXYLUMIC ACID C] gave an FDI of 59.4%.

Compound `CC(=O)O[C@@H]1[C@H]2C(=C3[C@H](O)[C@H](O)[C@@H](c4ccoc4)[C@]3(C)[C@H]1OC(=O)C(O)C(C)C)COC(=O)C[C@@H](OC(=O)C(O)C(C)C)[C@@]2(C)[C@@H](CC(=O)O)C(C)(O)CO` (stereo partly specified) [DYSOXYLUMIC ACID D] had an FDI of 29.5%.

Compound `C=C1[C@@H]([C@@]2(C)[C@@H](OC(C)=O)CC(=O)O[C@](C)(COC(C)=O)[C@@H]2CC(=O)OC)[C@@H](OC=O)[C@H](OC(=O)[C@H](O)C(C)C)[C@@]2(C)[C@@H](c3ccoc3)[C@@H](OC(=O)[C@@H](C)CC)[C@H]3O[C@]132` [DYSOXYLUMINS A] gave an FDI of 73.8%.

In the case of `C=C1[C@@H]([C@@]2(C)[C@@H](OC(C)=O)CC(=O)O[C@](C)(COC(C)=O)[C@@H]2CC(=O)OC)[C@@H](OC=O)[C@H](OC(=O)[C@H](O)C(C)C)[C@@]2(C)[C@@H](c3ccoc3)[C@@H](OC(=O)[C@H](OC(C)=O)C(C)C)[C@H]3O[C@]132` [DYSOXYLUMINS B], the FDI turned out to be 77.4%.

The compound `C=C1[C@@H]([C@@]2(C)[C@@H](OC(C)=O)CC(=O)O[C@](C)(COC(C)=O)[C@@H]2CC(=O)OC)[C@@H](OC=O)[C@H](OC(=O)[C@H](O)C(C)C)[C@@]2(C)[C@@H](c3ccoc3)[C@@H](OC(=O)[C@H](O)C(C)C)[C@H]3O[C@]132` [DYSOXYLUMINS C] came in with an FDI of 74.9%.

In the case of `C=C1[C@@H]2[C@@H](O[C@H]3CC(=O)O[C@@]4(C)COC(=O)C[C@@H]4[C@]32C)[C@H](OC(=O)C(O)C(C)C)[C@@]2(C)[C@H](c3ccoc3)[C@@H](OC(=O)C(O)C(C)C)[C@H]3O[C@]132` (stereo partly specified) [DYSOXYLUMOLIDE A], the FDI is listed as 27.9%.

With `CC(C)C(O)C(=O)O[C@H]1[C@H](O)[C@H]2C(=C3[C@H](O)[C@H](O)[C@@H](c4ccoc4)[C@@]31C)COC(=O)C[C@@H](OC(=O)C(O)C(C)C)[C@@]2(C)[C@H]1CC(=O)OC[C@@]1(C)O` (stereo partly specified) [DYSOXYLUMOLIDE B], the FDI was found to be 28.3%.

In turn, `CC(C)C(O)C(=O)OC(C(=O)O[C@@H]1[C@H](O)[C@@H]2[C@](C)(/C=C\C(=O)OC[C@@]2(C)O)[C@H]2CC[C@@]3(C)[C@H](c4ccoc4)OC(=O)[C@H]4O[C@]43[C@]12C)C(C)C` (stereo partly specified) [DYSOXYLUMOLIDE C] showed an FDI of 22.4%.
